Data on eleven molecules can be found in US20100004222A1, “Amide Derivatives as Ion-Channel Ligands and Pharmaceutical Compositions and Methods of Using the Same” (Renovis, Inc., priority 2006, published 2010).

“Also recorded” adds a separate entry of the source. Bounds are passed on as bounds.

For series [1], the target named is T1, VR1 (Homo sapiens, UniProt Q8NER1). The series can be described thus: Calcium uptake assay, capsaicin agonist (high throughput calcium imaging). In kind it is cell-based. Also on record: expressed in transfected cells; host or cells: T-REx HEK 293 (Invitrogen), pcDNA5/TO vector. To be noted: 3 nM; FIGS. 2-6.
Target sequence in this assay (Q8NER1 whole entry): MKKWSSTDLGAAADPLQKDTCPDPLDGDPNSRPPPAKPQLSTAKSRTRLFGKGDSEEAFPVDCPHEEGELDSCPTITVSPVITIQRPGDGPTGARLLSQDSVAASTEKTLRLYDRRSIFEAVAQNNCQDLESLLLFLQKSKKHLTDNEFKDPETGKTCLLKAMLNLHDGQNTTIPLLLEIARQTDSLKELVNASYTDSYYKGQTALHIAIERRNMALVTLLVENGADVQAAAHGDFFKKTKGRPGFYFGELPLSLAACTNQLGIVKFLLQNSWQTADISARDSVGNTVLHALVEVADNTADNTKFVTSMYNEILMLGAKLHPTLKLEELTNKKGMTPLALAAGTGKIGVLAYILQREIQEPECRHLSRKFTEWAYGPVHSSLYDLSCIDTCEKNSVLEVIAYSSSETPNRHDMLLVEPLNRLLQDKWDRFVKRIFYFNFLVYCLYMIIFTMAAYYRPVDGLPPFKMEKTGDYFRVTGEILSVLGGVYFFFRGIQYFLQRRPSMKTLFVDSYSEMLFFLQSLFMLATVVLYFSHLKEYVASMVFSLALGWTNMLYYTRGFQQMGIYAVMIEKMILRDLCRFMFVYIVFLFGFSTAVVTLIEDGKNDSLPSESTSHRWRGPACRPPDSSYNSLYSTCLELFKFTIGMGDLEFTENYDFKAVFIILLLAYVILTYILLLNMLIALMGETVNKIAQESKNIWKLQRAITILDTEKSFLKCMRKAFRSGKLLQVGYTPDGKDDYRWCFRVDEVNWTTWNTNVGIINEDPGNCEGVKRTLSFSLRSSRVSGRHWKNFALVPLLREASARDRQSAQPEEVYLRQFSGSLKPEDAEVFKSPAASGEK
The subject of another series is VR1 receptor. The series can be described thus: Calcium imaging assay in DRG neurons (capsaicin). In kind it is cell-based. To be noted: 3 nM, FIG. 1. As for the experimental part: Therefore the functional activity of compounds at the VR1 receptor may be determined by measuring changes in intracellular calcium levels in neurons such as the dorsal root ganglion. […] Prior to assay, cells were loaded with 5 μg/ml Fura2 in normal saline solution at 37° C. for 40 minutes. Cells were then washed with normal saline to remove dye before commencement of the experiment. The plated neurons were transferred into a chamber on the stage of a Nikon eclipse TE300 microscope after which neurons were allowed to attain a stable fluorescence for about 10 minutes before beginning the experiment. The assay consists of two stages, a pretreatment phase followed by a treatment phase. First, a solution of the test compound was added from a multivalve perfusion system to the cells for 1 minute (pretreatment). […] Fura2 was excited at […] to indicate relative calcium ion concentration. Changes in wavelength measurements were made throughout the course of the experiment. The fluorescence ratio was calculated by dividing fluorescence measured at 340 nm by that at 380 nM. Data were collected using Intelligent Imaging's Slidebook software.

The nature of series [2]: Pharmacokinetic evaluation following intravenous and oral administration in rats. To be noted: male, Sprague-Dawley, plasma, rat; for clearance: non-compartmental analysis, read-out: In vivo Clearance (converted); for bioavailability: AUCinf (PO)/AUCinf (IV), dose normalized, PO 5 mg/kg, read-out: Oral Bioavailability F (%). In kind it is in vivo.
In series [3] the target is T1, VR1. Kind of series: Acid stimulation assay (FDSS 6000). In kind it is cell-based. To be noted: final assay buffer pH5.8, 15 min pre-incubation. How it is done:
The Acid-induced changes in the intracellular calcium concentration were monitored using FDSS 6000 (Hamamatsu Photonics, Japan), a fluorometric imaging system. The cell suspension in resting buffer (HBSS supplemented with 10 mM HEPES, pH 7.4) was pre-incubated with varying concentrations of the test compounds or resting buffer (buffer control) for 15 minutes at room temperature under dark conditions. The cells were automatically added the stimulating solution (HBSS supplemented with MES, final assay buffer pH5.8) by the FDSS 6000.
Target sequence in this assay (Q8NER1 whole entry, species assumed): as the sequence (Q8NER1 whole entry) above

Series [4] concerns the target T1, VR1. Kind of series: Calcium uptake assay, low pH (proton) agonist. In kind it is cell-based. Also on record: expressed in transfected cells; host or cells: T-REx HEK 293 (Invitrogen), pcDNA5/TO vector. To be noted: HEK293; 0.3 μM compound; low pH (protons) as agonist; HEK 293 cells expressing hVR1; read-out: Low pH % Inhib. @ 0.3 μM.
Target sequence in this assay (Q8NER1 whole entry): as above
Series [5] is described as follows: Half-life in human liver microsomes (HLM). In kind it is in vitro ADME. To be noted: pH 7.4, 1 μM compound, 0.78 mg/mL HLM, 37° C. How it is done: Test compounds (1 μM) are incubated with 3.3 mM MgCl2 and 0.78 mg/mL HLM (HL101) in 100 mM potassium phosphate buffer (pH 7.4) at 37° C. on the 96-deep well plate. The reaction mixture is split into two groups, a non-P450 and a P450 group. NADPH is only added to the reaction mixture of the P450 group. An aliquot of samples of P450 group is collected at 0, 10, 30, and 60 min time point, where 0 min time point indicated the time when NADPH is added into the reaction mixture of P450 group. An aliquot of samples of non-P450 group is collected at −10 and 65 min time point. Collected aliquots are extracted with acetonitrile solution containing an internal standard. The precipitated protein is spun down in centrifuge (2000 rpm, 15 min). The compound concentration in supernatant is measured by LC/MS/MS system.
The half-life value is obtained by plotting the natural logarithm of the peak area ratio of compounds/internal standard versus time. The slope of the line of best fit through the points yields the rate of metabolism (k). This is converted to a half-life value using following equations: […]
On the technique in general: Liver microsomes are a subcellular fraction often used to study metabolism.

In series [6] the test system is Dorsal root ganglion (DRG) neurons. The series can be described thus: Whole-cell patch clamp electrophysiology. In kind it is cell-based. To be noted: Rattus norvegicus, DRG neuron, read-out: % inhibition of capsaicin induced current. How it is done:
Dorsal root ganglion (DRG) neurons were recovered from either neonatal or adult rats and plated onto poly-D-lysine coated glass coverslips. The plated neurons were transferred into a chamber to allow drug solutions to be added to the cells using a computer-controlled solenoid-valve based perfusion system. The cells were imaged using standard DIC optics. Cells were patched using finely-pulled glass electrodes. Voltage-clamp electrophysiology experiments were carried out using an Axon Instruments Multiclamp amplified controlled by pCLAMP8 software.

For orientation: bioavailability means the share of a dose that reaches the circulation, judged against a reference dose that is usually intravenous. The IC50 is the midpoint of a concentration-inhibition curve. The term half-life denotes the time in which the quantity being followed falls by half. A high value points to slow loss.

Turning to `Cc1cc(C#CC(C)(C)C)ccc1C(=O)Nc1ccc2c(c1)OCC(CO)N2` (centres unmarked) [Compound 167], the “inhibition of the Capsaicin induced intracellular calcium response” value on VR1 [1] was “significant inhibition”.

With `C/C(=C\C(F)(F)F)c1ccc(C(=O)Nc2ccc3c(c2)OCCN3)cc1` [Compound 96], the “inhibition of the Capsaicin induced intracellular calcium response” value on VR1 [1] is listed as “significant inhibition”.

`O=C(Nc1cccc2cnccc12)c1ccc(C#CC(F)(F)F)cc1` [Compound 45]: the “inhibition of the Capsaicin induced intracellular calcium response” value on VR1 [1] is on record as “significant inhibition”.

`Cc1cc(/C=C/C(F)(F)F)ccc1C(=O)Nc1ccc2sc(CO)nc2c1` [Compound 225]: the “inhibition of the Capsaicin induced intracellular calcium response” value with VR1 receptor is on record as “reduced; also recorded: significant inhibition”. Besides, the clearance in series [2] was 0.091 L/h/kg.

With `Cc1cc(/C=C/C(F)(F)F)ccc1C(=O)Nc1cnc2ccccc2c1` [Compound 187, 2-Methyl-N-quinolin-3-yl-4-((E)-3,3,3-trifluoro-propenyl)-benzamide], the “inhibition of the Capsaicin induced intracellular calcium response” value on VR1 [1] is “significant inhibition”. Also, in series [2], the bioavailability is 43% and the clearance was 0.11 L/h/kg.

With `Cc1cc(/C=C/C(F)(F)F)ccc1C(=O)Nc1cnc2c(c1)OCC(CO)N2` (centres unmarked) [Compound 233], on VR1 [1], the “inhibition of the Capsaicin induced intracellular calcium response” value is given as “significant inhibition”. Moreover, in series [2], the bioavailability was found to be 54% and the clearance is 2 L/h/kg.

`Cc1cc(/C=C/C(F)(F)F)ccc1C(=O)Nc1ccc2cc(C(O)CO)cnc2c1` (centres unmarked) [Compound 308, (E)-N-(3-(1,2-dihydroxyethyl)quinolin-7-yl)-2-methyl-4-(3,3,3-trifluoroprop-1-enyl)benzamide] displayed an IC50 against VR1 [3] of 11 nM. In addition, the inhibition at 0.3 µM on VR1 [4] came out at 101%. Also, the half-life at 1 μM in series [5] is 1.05 h. Further, in series [2], the bioavailability is 71% and the clearance was 0.734 L/h/kg.

Turning to `COc1cc(NC(=O)c2ccc(/C=C/C(C)C)cc2)cc(C(F)(F)F)c1` [Compound 240], the inhibition at 0.1 µM in series [6] amounted to 50%.

`Cc1cc(/C=C/C(F)(F)F)ccc1C(=O)Nc1cnc2cccnc2c1` [Compound 318, (E)-2-methyl-N-(1,5-naphthyridin-3-yl)-4-(3,3,3-trifluoroprop-1-enyl)benzamide]: the midpoint of inhibition on VR1 [3], the IC50, lay at 3 nM. Moreover, the inhibition at 0.3 µM at VR1 [4] came to 104%. This molecule had a half-life at 1 μM in series [5] of 2.96 h. In addition, in series [2], the bioavailability turned out to be 59% and the clearance is 0.08 L/h/kg.

For the molecule `Cc1cc(/C=C/C(F)(F)F)ccc1C(=O)Nc1cnc2cc(CO)cnc2c1` [Compound 317, (E)-N-(7-(Hydroxymethyl)-1,5-naphthyridin-3-yl)-2-methyl-4-(3,33-trifluoroprop-1-enyl)benzamide], on VR1 [3], the midpoint of inhibition, the IC50, lay at 11 nM. Also, on VR1 [4], the inhibition at 0.3 µM is 100%. This molecule also gave a half-life at 1 μM in series [5] of 0.62 h. Also, in series [2], the bioavailability came out at 47% and the clearance is 0.99 L/h/kg.

On to `Cc1cc(/C=C/C(F)(F)F)ccc1C(=O)Nc1cnc2sc(CO)nc2c1` [Compound 413, (E)-N-(2-(hydroxymethyl)thiazolo[5,4-b]pyridin-6-yl)-2-methyl-4-(3,3,3-trifluoroprop-1-enyl)benzamide], for which half-maximal inhibition on VR1 [3] (IC50) required 4 nM. For the same molecule, the inhibition at 0.3 µM on VR1 [4] is 110%. The half-life at 1 μM in series [5] was 3.22 h. In series [2], the bioavailability is > 100% and the clearance is 0.23 L/h/kg.
